According to patent publication US12564622B2, “Preventing cytokine release syndrome” (priority 2017, dated 2026):
Where “and” joins values, the source holds several entries; their conditions need not be identical. Identical values can stand only once. Entries after “also recorded” stand apart in the source; their conditions may differ.

Legend:
[1] = tested on: co-culture of hCART19 and Raji cells; experiment: In vitro co-culture of Raji and hCART19 cells; assay type: cell-based, human; conditions: Raji with hCART19 (1:5), 24 hours; metyrosine 2 mM or ANP 5 μg/ml
Description: Human CD19scFv-CD28-4-1BB-CD3ζ CAR-T cells (PM-CAR1003) were purchased from Promab Biotechnologies and maintained less than 7 days in AIM-V medium (GIBCO) supplemented with 300 IU/ml of hIL2 (Peprotech), 5% FBS and antibiotics (Car-T medium).

LPS-injected BALB/c mice = assay type: in vivo, mouse (BALB/c)
Method: LPS from Escherichia coli 0111:B4 was formulated as a 10 mg/ml solution in water and stored in −80° C. LPS was injected intraperitoneally at a dose of 3.5 mg/kg. […] Human ANP (Sigma) was dissolved in saline, loaded in mini-osmotic pumps (ALZET) with a release rate of 12 μg/day and implanted subcutaneously in the back of mice 12 hours before the LPS injection. Mice implanted with pumps loaded with saline served as controls. […] […] The control groups were injected with PBS. […] Hydration of mice was supported by daily subcutaneous injection of 0.5 ml saline.
LPS from Escherichia coli 0111:B4 was formulated as a 10 mg/ml solution in water and stored in −80° C. In Balb/C mice, LPS was injected intraperitoneally at a lethal dose of 3.5 mg/kg. […] In experiments with catecholamine pumps, a sublethal dose with 15-35% death rate was optimized in Balb/C mice. In TH+/+ and TH^ΔLysM mice with C57BL/6 background, a lethal dose was optimized at 5 mg/kg. Human ANP (Sigma) was dissolved in saline, loaded in mini-osmotic pumps (ALZET) with a release rate of 12 μg/day and implanted subcutaneously in the back of mice 12 hours before the LPS injection. Mice implanted with pumps loaded with saline served as controls. Metyrosine was freshly dissolved in PBS and injected IP at the indicated doses for three days prior to the LPS treatment. One hour before the LPS injection, metyrosine was injected into the lower abdomen contralateral to the side of LPS injection. The control groups were injected with PBS. For the following 3 days, metyrosine was injected IP at reduced indicated doses. Hydration of mice was supported by daily subcutaneous injection of 0.5 ml saline.

[2] = tested on: Raji-bearing NSGS mice with high tumour burden treated with hCART19; experiment: hCART19 treatment of Raji-bearing NSGS mice, high tumour burden; assay type: in vivo, mouse (NSGS)
Description: Six to eight-week old female NSG-SGM3 mice (NOD.Cg-Prkdcscid Il2rgtm1Wjl Tg(CMVIL3,CSF2,KITLG)1Eav/MloySzJ, Stock #013062) were purchased from the Jackson Laboratory. Raji cells were transfected with a luciferase construct via lentivirus to create Raji-luc cells as described elsewhere (Bai et al., 2015 Neuro Oncol., 17:545). Human CD19scFv-CD28-4-1BB-CD3ζ CART cells (PM-CAR1003, CART19) from Promab Biotechnologies were maintained for less than 7 days in AIM-V medium (GIBCO) supplemented with 300 IU/ml of hIL2 (Peprotech), 5% FBS and antibiotics. One day before the injection of Raji cells, mice were irradiated at a dose of 2 Gy in a CIXD Xstahl device. One million Raji-luc cells were injected IV via tail vein on day zero. Six days later, tumor loads were assessed using a Xenogen instrument and 15×10^6 CART19 cells were injected IV. Metyrosine was injected IP at 60 mg/kg/day for three days before the CART19 injection. On the day of CART19 injection, a fourth dose of 60 mg/kg was given IP and the mice were subsequently injected four more times at daily intervals at 30 mg/kg.
Six to eight weeks old female NSG-SGM3 (NSGS) mice (NOD.Cg-Prkdcscid Il2rgtm1WjlTg (CMV-IL3, CSF2, KITLG) 1Eav/MloySzJ, Stock #013062) were purchased from the Jackson Laboratory. Raji cells were transfected with a luciferase construct via lentivirus to create Raji-luc cells. NSGS is a triple transgenic strain expressing human IL3, GM-CSF and SCF combine the features of the highly immunodeficient NOD scid gamma (NSG) mouse. One day before the injection of Raji cells, mice were irradiated at a dose of 2 Gy in a CIXD Xstahl device. In high tumor burden experiments in FIG. 5, 10^6 Raji-luc cells were injected IV via tail vein. Six days later, tumor loads were assessed using a Xenogen instrument and 15×10^6 hCART19 cells or untransduced T-cells were injected IV. In low tumor burden experiments in FIG. 6, 2×10^5 Raji-luc cells were injected IV via tail vein. Four days later, tumor loads were assessed using a Xenogen instrument and 15×10^6 hCART19 cells were injected IV. Metyrosine was injected IP at 60 mg/kg/day for three days before the hCART19 injection. On the day of CART19 injection, a fourth dose of 60 mg/kg was given IP and the mice were subsequently injected four more times at daily intervals at 30 mg/kg.

[3] = 24 and 72 hours after hCART19, metyrosine pre-treatment

C[C@](N)(Cc1ccc(O)cc1)C(=O)O [metyrosine, α-methyl-tyrosine]
catecholamine production [1]: significantly decreased; also recorded: suppressed the catecholamine surge
cytokine production [1]: significantly decreased; also recorded: blocked
levels of catecholamines (LPS-injected BALB/c mice; LPS, metyrosine pre-treatment): substantially reduced
levels of inflammatory cytokines (LPS-injected BALB/c mice; LPS, metyrosine pre-treatment): substantially reduced
mice surviving (LPS-injected BALB/c mice; lethal dose LPS IP, metyrosine pre-treatment): ~70% and ~75%
efficacy at 20 mg/kg (LPS-injected BALB/c mice; lethal dose LPS, metyrosine 20 mg/kg): ineffective
dependence of efficacy on dose (LPS-injected BALB/c mice; lethal dose LPS, metyrosine 20, 30, 40 mg/kg): dose-dependent
circulating catecholamines [2, 3]: significantly reduced; also recorded: significantly lower
circulating human and mouse cytokines [2, 3]: significantly reduced; also recorded: significantly lowered
circulating catecholamines ([2]; 24 and 72 hours after hCART19, metyrosine pre-treatment, listed as Metyrosine): able to block that effect
final outcome ([2]; high tumour burden, hCART19 plus metyrosine): eventually died with progressive lymphoma
plasma dopamine ([2]; two time points after CART19 treatment): able to reduce dopamine production
